{
  "source": "patent US4819645A",
  "about": "“Dermal substance collection method” (priority 1987, dated 1989)",
  "key": {"[1]": {"assay_type": "in vivo, Rhesus monkey", "conditions": "14C-parathion intravenously; activated charcoal gel DSCD, skin pre-treated with Azone", "description": "Extensive In vivo testing of the dermal substance collection device (DSCD) has been undertaken in rabbits (R, Rhesus monkeys (M) and humans (H). […]. Experimental conditions were varied in order to evaluate various binding reservoirs including activated charcoal dispersed in a saline/gel matrix, various DSCD embodiments which provide a liquid bridge including saline, immobilized by various gels such as agarose or polyvinyl alcohol as the gelling agent, various DSCD embodiments which provide persistent occlusive contact of the liquid bridge with the skin (single layer adhesive tape overlying the DSCD liquid bridge/binding reservoir complex vs multiple tape/foil layers enveloping a liquid bridge/binding reservoir complex vs multiple tape/foil layers enveloping a liquid bridge/binding reservoir complex which protrudes into the skin effecting positive pressure during emplacement), various preparatory procedures (shaving, clipping of hair, use of a chemical depilitant, cleansing of the skin with soap and isopropyl alcohol), and various skin penetration enhancing agents (Azone, DET, DMSO).\nIn a typical animal experiment, a Rhesus monkey is anesthetized with ketamine 10 mg/kg and the hair on the chest and abdomen is clipped prior to washing the underlying skin (with a mild soap or isopropyl alcohol). […]"}, "[2]": {"assay": "Collection of cimetidine by DSCDs in a healthy volunteer", "conditions": "5 mg/kg orally or intravenously, 24 hours, 25 mm liquid bridge, agarose gel with activated charcoal"}, "[3]": {"conditions": "Rhesus monkeys, maximum percentage of administered dose collected, liquid bridge diameter 9 mm"}, "[4]": {"assay": "Collection of THC by DSCDs after oral THC, RIA after toluene/ethanol extraction", "conditions": "cancer patient, oral 10 mg THC, up to 48 hours, lower legs, 1 cm gel"}, "[5]": {"conditions": "parent compound and metabolites"}},
  "note": "Read-outs that look alike come from different tables or passages of the source.",
  "data": [
    {"compound": "CCOP(=S)(OCC)Oc1ccc([N+](=O)[O-])cc1", "note": "[14C-parathion]", "values": [
      {"measurement": "transdermal collection (in words)", "setting": "[1]", "result": "particularly satisfactory transdermal collection"}
    ]},
    {"compound": "CN/C(=N/CCSCc1nc[nH]c1C)NC#N", "note": "[CIMETIDINE, cimetidine]", "values": [
      {"measurement": "amount of cimetidine collected from DSCDs", "setting": "[2]", "result": "62 to 461", "unit": "ng"},
      {"measurement": "EXTENT OF TRANSDERMAL MIGRATION", "setting": "[3]; parent compound only", "result": 8.3, "unit": "% Dose × 10^4"}
    ]},
    {"compound": "CN1CCCC1c1cccnc1", "note": "(stereo not shown) [NICOTINE, nicotine]", "values": [
      {"measurement": "EXTENT OF TRANSDERMAL MIGRATION", "setting": "[3]; [5]", "result": 2.5, "unit": "% Dose × 10^4"}
    ]},
    {"compound": "CCOP(=S)(OCC)Oc1ccc([N+](=O)[O-])cc1", "note": "[PARATHION, parathion]", "values": [
      {"measurement": "EXTENT OF TRANSDERMAL MIGRATION", "setting": "[3]; [5]", "result": 0.7, "unit": "% Dose × 10^4"}
    ]},
    {"compound": "CCCCCc1cc(O)c2c(c1)OC(C)(C)[C@@H]1CCC(C)=C[C@@H]21", "note": "[TETRAHYDROCANNABINOL]", "values": [
      {"measurement": "amount of THC collected from DSCDs", "setting": "[4]; agarose gel without activated charcoal", "result": "224 ± 22", "unit": "pg"},
      {"measurement": "amount of THC collected from DSCDs", "setting": "[4]; gel with activated charcoal", "result": "601 ± 302", "unit": "pg"},
      {"measurement": "EXTENT OF TRANSDERMAL MIGRATION", "setting": "[3]; parent compound only", "result": 0.1, "unit": "% Dose × 10^4"}
    ]},
    {"compound": "Cn1c(=O)c2[nH]cnc2n(C)c1=O", "note": "[THEOPHYLLINE, theophylline]", "values": [
      {"measurement": "EXTENT OF TRANSDERMAL MIGRATION", "setting": "[3]; [5]", "result": 25, "unit": "% Dose × 10^4"}
    ]},
    {"compound": "inulin", "values": [
      {"measurement": "EXTENT OF TRANSDERMAL MIGRATION", "setting": "[3]; [5]", "result": 0.5, "unit": "% Dose × 10^4"}
    ]}
  ]
}
